The results in this text go back to ChEMBL document CHEMBL1201862, “PubChem BioAssay data set” (2004).

Common to all, as to experiment: NCI tumour cell line growth inhibition, 48 h
For assay [1], the system named is BT-549.
Assay [2] concerns Hs-578T.
In assay [3] the test system is MDA-N.
Assay [4] deals with DLD-1.
Assay [5] concerns DMS-114.
Assay [6] relates to DMS-273.
The subject of assay [7] is KM-20L2.

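Each compound was tested at five concentrations against cells in 96-well plates for 48 hours. GI50 marks 50% less growth.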 Activity calls are given as the source filed them. No stated cut-off is given here; in the data, active = GI50 up to about 1.1 µM and inactive = higher.

In the case of `COc1ccc(/C=C2\N=C(SC)NC2=O)cc1`, the GI50 in assay [1] was 42.8 µM (inactive); in assay [2], 64.6 µM (inactive); in assay [3] it was 83.6 µM (inactive).
With `O=C1c2cc([N+](=O)[O-])ccc2-c2ccc3c4ccc5c6c(ccc(c7ccc1c2c73)c64)C(=O)c1cc([N+](=O)[O-])ccc1-5`, the GI50 in assay [1], in assay [2] and in assay [3] was > 100 µM (inactive) throughout.
Regarding `NC(=O)c1csc(-c2ccc(CO)o2)n1`, the GI50 in assay [1] and in assay [3] was > 100 µM (inactive) throughout.
On to `O=C(C=P(c1ccccc1)(c1ccccc1)c1ccccc1)c1ccccc1-c1ccccc1C(=O)C=P(c1ccccc1)(c1ccccc1)c1ccccc1`, for which the GI50 is 0.0319 µM (active) in assay [2] and 0.0229 µM (active) in assay [3].
With `Cc1cc([N+](=O)[O-])c(C)c(Br)c1C`, the GI50 in assay [1] is > 100 µM (inactive); in assay [2], 42.8 µM (inactive); in assay [3], > 100 µM (inactive).
For the compound `CCN(CC)CC[S+]([O-])c1c2cc(OC)ccc2nc2ccc(OC)cc12` (stereo not drawn), the GI50 was 15.8 µM (inactive) in assay [1] and 3.24 µM (inactive) in assay [2].
For the compound `CCOC(=O)C12CN(C34CC5CC(CC(C5)C3)C4)CC(C(=O)OCC)(C1=O)C(c1ccccc1)OC2c1ccccc1` (stereo not drawn), the GI50 in assay [4] is > 100 µM (inactive); in assay [5] it was 52.2 µM (inactive); in assay [6], > 100 µM (inactive); in assay [7], > 100 µM (inactive).
Turning to `COc1cc(C2SCC(=O)N2c2ccc(Oc3ccc(Cl)cc3)c(Cl)c2)cc(OC)c1OC` (stereo not drawn), the GI50 is 16.5 µM (inactive) in assay [1], 22.2 µM (inactive) in assay [2] and 20 µM (inactive) in assay [3].
On to `CCOC(=O)C(C(CC(=O)OC)NC(=O)OCc1ccccc1)C1(C)OCCO1` (stereo not drawn), for which the GI50 in assay [4], in assay [5], in assay [6] and in assay [7] was > 100 µM (inactive) each time.
Take `COc1ccc(-c2csc(Cc3nc4c(Br)cc(Br)cc4c(=O)n3-c3ccc(OC)cc3)n2)cc1`: the GI50 in assay [1] is > 100 µM (inactive); in assay [2] it was > 100 µM (inactive); in assay [3] it was 3.7 µM (inactive).
As for `CCOC(=O)c1c(OCC)[nH]c(=O)c(C(c2ccc(F)cc2)c2c(O)c(C(=O)OCC)c(OCC)[nH]c2=O)c1O`, the results for the GI50 in assay [1] and in assay [2] were 9.71 µM (inactive) and 20.8 µM (inactive), respectively.
In the case of `O=C1c2cccc3cc([N+](=O)[O-])cc(c23)C(=O)N1c1ccc(OCCN2CCCC2)cc1`, the GI50 was 24.9 µM (inactive) in assay [2] and 30.8 µM (inactive) in assay [3].
With `COc1cc2oc(-c3ccc4c(c3)OCO4)c(OC)c(=O)c2c(OC)c1O`, the GI50 was 31.4 µM (inactive) in assay [1], 61 µM (inactive) in assay [2] and > 100 µM (inactive) in assay [3].
In the case of `O=C(Cn1c2c(c3ccccc31)CCCC2)N1CCOCC1`, the GI50 in assay [1] is > 100 µM (inactive); in assay [2], 35.2 µM (inactive); in assay [3], > 100 µM (inactive).
For the compound `O=C(N[C@@H](c1ccccc1)[C@@H](O)C(=O)OCc1ccc([N+](=O)[O-])cc1)c1ccccc1`, the GI50 in assay [1], in assay [2] and in assay [3] was > 100 µM (inactive) throughout.
In the case of `Cc1ccc(N2CCN(CCC(=O)O)CC2)cc1`, the GI50 in assay [1] and in assay [2] was > 100 µM (inactive) throughout.
For `COc1ccccc1/C=C\C(=O)C1COCN1` (stereo not drawn), in assay [2], the GI50 was 16.3 µM (inactive).
As for `O=C(O)CC(NC(=O)/C(=C/c1ccccc1O)NC(=O)c1ccccc1)C(=O)O` (stereo not drawn), the results for the GI50 in assay [1] and in assay [3] were 57 µM (inactive) and > 100 µM (inactive), respectively.
Turning to `O=S(=O)(/C=C/C=C/[S+]([O-])c1ccccc1)c1ccccc1` (stereo not drawn), the values for the GI50 in assay [1], in assay [2] and in assay [3] were > 10 µM (inactive), 3.51 µM (inactive) and 2.95 µM (inactive), respectively.
Turning to `O=C(OCC1CC(C2(O)CCCCC2)C(=O)O1)c1ccccc1` (stereo not drawn), the GI50 in assay [1] was > 100 µM (inactive).
Regarding `Cc1c(-c2coc(-c3ccc([N+](=O)[O-])cc3)n2)c(=O)n(-c2ccccc2)n1C`, the GI50 in assay [4], in assay [5], in assay [6] and in assay [7] was > 100 µM (inactive) throughout.
Consider `CCCCOC(=O)C1CN2C(=NC1(C(F)(F)F)C(F)(F)F)Sc1ccccc12` (stereo not drawn), for which the GI50 in assay [1] is 26.1 µM (inactive); in assay [2], 30.6 µM (inactive); in assay [3], 60.3 µM (inactive).
As to `COc1cc2c(c(OC)c1OC)C(=O)[C@H]1OC(=O)N[C@@H]21`, the GI50 in assay [2] is > 100 µM (inactive).
For the compound `CC(=O)c1c2c(cc3c1CC1(C3)Cc3cc4c(c(C(=O)O)c3C1)CCCC4)CCCC2.CC(N)c1ccccc1` (stereo not drawn), the GI50 in assay [2] was 36.6 µM (inactive); in assay [3] it was 42.1 µM (inactive).
Regarding `Cc1cc2ccccc2oc(=O)/c1=N\Nc1ccccc1`, the GI50 in assay [1] is 78.9 µM (inactive); in assay [3] it was > 100 µM (inactive).
`COc1cc(OC)c(/C=N\Nc2nc3ccccc3c(=O)n2-c2ccccc2)c(OC)c1`: in assay [3], the GI50 was 17.4 µM (inactive).
In the case of `COc1ccc(/C=C(/c2ccccc2)c2c(C)cc(C)c(/C(=C\c3ccc(OC)cc3)c3ccccc3)c2/N=N/c2cc(C)cc(C)c2)cc1`, the GI50 was 45.3 µM (inactive) in assay [1], 22.5 µM (inactive) in assay [2] and 24 µM (inactive) in assay [3].
As to `N#CC1=C(S)N(C2OC(CO)C(O)C(O)C2O)C(c2ccccc2)=CC1c1ccco1` (stereo not drawn), the GI50 is > 100 µM (inactive) in assay [1], 56.5 µM (inactive) in assay [2] and 93.3 µM (inactive) in assay [3].
In the same order, the values of `Cn1c2ccccc2c2c(=S)c3ccccc3ccc21` are > 100 µM (inactive), > 100 µM (inactive) and > 100 µM (inactive).
`COc1cc(/C=C/C2=NN(c3cccc(S(=O)(=O)O)c3)C3(C2)SCC(=O)N3c2nc3ccccc3s2)cc(OC)c1OC` (stereo not drawn): the GI50 was 42 µM (inactive) in assay [1], 56.6 µM (inactive) in assay [2] and 39.4 µM (inactive) in assay [3].
For the compound `CC(=O)O[C@H]1CCC2[C@@H]3CCC4Cc5nc6c(nc5C[C@]4(C)C3CC[C@@]21C)CC1CC[C@@H]2C(CC[C@@]3(C)C2CC[C@@H]3C(C)CCCC(C)C)[C@@]1(C)C6` (stereo partly drawn), the GI50 in assay [1], in assay [2] and in assay [3] was > 100 µM (inactive) each time.
On to `CCOC(=O)Nn1cnnc1Cc1ccccc1`, for which the GI50 was > 100 µM (inactive) in assay [1], 20 µM (inactive) in assay [2] and > 100 µM (inactive) in assay [3].
With `COc1ccc(/C=C2\CCC(CNc3cc(C)on3)C2=O)cc1` (stereo not drawn), the GI50 in assay [1] is > 78.3 µM (inactive); in assay [2], 57.9 µM (inactive); in assay [3], > 100 µM (inactive).
For the compound `CC(/C=N\NC(=S)N(C)C)=N/NC(=S)N(C)C`, the results for the GI50 in assay [1], in assay [2] and in assay [3] were 1.93 µM (inactive), 1.65 µM (inactive) and 8.93 µM (inactive), respectively.
With `O=c1c(-c2ccccc2Cl)coc2cc(F)ccc12`, the values for the GI50 in assay [1], in assay [2] and in assay [3] were 14.9 µM (inactive), 28.4 µM (inactive) and 3.79 µM (inactive), respectively.
For `CC(=O)OCC1OC(n2c3c(cc(C#N)c2=O)CCCCCC3)C(OC(C)=O)C(OC(C)=O)C1OC(C)=O` (stereo not drawn), the GI50 in assay [1], in assay [2] and in assay [3] was > 100 µM (inactive) in each case.
For the compound `O=C(O)CCCN/C(=C1\C(=O)C(=O)N(c2ccccc2)C1=O)c1ccccc1`, the GI50 in assay [1], in assay [2] and in assay [3] was > 100 µM (inactive) in each case.
In the case of `CCC(C)(C)C1CCC2c3c([nH]c4ccccc34)C3C(=O)N(c4ccc(OC)cc4)C(=O)C3C2C1` (stereo not drawn), the GI50 in assay [1] was 16.1 µM (inactive); in assay [3], 18.7 µM (inactive).
In the case of `CC/C=C/C(/C=C/C[C@]1(CC)C[C@H](CC)[C@H](CC(=O)O)OO1)CC` (stereo partly drawn), the GI50 in assay [1] is 6.28 µM (inactive); in assay [2], 1.91 µM (inactive); in assay [3] it was 1.85 µM (inactive).
`CC(C)=C/C(CC(O)(C(F)(F)F)C(F)(F)F)=N\O`: in assay [2], the GI50 is > 100 µM (inactive).
As for `C=C(C)CCC1C=[N+]([O-])OC(C)(C)C1(C)C` (stereo not drawn), the GI50 in assay [2] and in assay [3] was > 100 µM (inactive) in each case.
Take `C=C1CN2CC(=C)CN(C1)CS(=O)(=O)N1CC(=C)CN(CC(=C)C1)S(=O)(=O)N1CC(=C)CN(CC(=C)C1)S(=O)(=O)C2`: the GI50 in assay [1] is 78.5 µM (inactive); in assay [2], 25.4 µM (inactive); in assay [3], 52.5 µM (inactive).
As for `NC(=O)c1cc2ccccc2o/c1=N/O`, the GI50 in assay [1] is > 100 µM (inactive); in assay [2], 26.2 µM (inactive); in assay [3], > 100 µM (inactive).
For `CC(=O)N1N=C(c2ccc3ccccc3c2O)CC1C(=O)c1ccco1` (stereo not drawn), the GI50 was 30.3 µM (inactive) in assay [1], 21.8 µM (inactive) in assay [2] and 20.6 µM (inactive) in assay [3].
On to `CCOP(=O)(OCC)/C(C#N)=C/c1cccn1C(C)C`, for which the GI50 in assay [1] and in assay [3] was > 100 µM (inactive) throughout.
Regarding `c1ccc(CN2C3C4N(Cc5ccccc5)C2C2N(Cc5ccccc5)C(C(N2Cc2ccccc2)N4Cc2ccccc2)N3Cc2ccccc2)cc1`, the GI50 in assay [1], in assay [2] and in assay [3] was > 100 µM (inactive) each time.
On to `CCOc1ccc(NC(=O)C2=C(C)NC(C)=C(C(=O)Nc3ccc(OCC)cc3)C2c2ccc([N+](=O)[O-])cc2)cc1`, for which the GI50 in assay [4] was 25.9 µM (inactive); in assay [5] it was 18.4 µM (inactive); in assay [7], 20 µM (inactive).
Consider `Nc1ccccc1.O=C(O)C(C(F)(F)F)C(F)(F)F`, for which the GI50 in assay [1], in assay [2] and in assay [3] was > 100 µM (inactive) in each case.
For `O=c1[nH]nc(Cc2ccccc2)n1/N=C/c1ccccc1O`, the GI50 in assay [1] was > 100 µM (inactive); in assay [2], 51.9 µM (inactive); in assay [3] it was > 100 µM (inactive).
For `C[n+]1c(-c2ccc(/C=N/N=C/c3ccc(-c4cn5ccccc5[n+]4C)cc3)cc2)cn2ccccc21`, the GI50 in assay [2] and in assay [3] was > 100 µM (inactive) throughout.
Regarding `COc1cc2cc(C(=O)N3CC(CCl)c4c3cc([N+](=O)[O-])c3ccccc43)[nH]c2c(OC)c1OC` (stereo not drawn), the GI50 in assay [1] was > 100 µM (inactive); in assay [2], > 45.1 µM (inactive); in assay [3], > 100 µM (inactive).
